Experimental data published in US20070238661A1, “Substance P treatment for hepatitis C” (priority 2006, published 2007).

Key:
[1] = test system: A/Hong Kong 8/68 influenza virus; set-up: species or system C57BL/6 mice; details: mouse, in vivo
lung protein alterations = test: Acute formalin exposure lung injury model, lung protein analysis by two-dimensional gel electrophoresis; assay type: in vivo, Fischer 344 rats
Experimental: In a third system, we sought to determine if Sar^9, Met (O2)^11-substance P-treated Fischer 344 rats who were exposed to 67 mg/m^3 […] aerosolize formalin for 1.5 minutes would attenuate lung protein alterations. At approximately 42 minutes post-formalin or air exposure, rat lungs were removed for protein analysis. […] Among these 71 proteins were fibrinogen-related proteins.

Hepatitis C virus = details: substance P aerosol combined with standard drug treatment of ribavirin and interferon alpha

| Compound | development of influenza symptoms (decreased body mass, fever, dehydration, nasal discharge) [1] | leukotriene B4 levels relative to A/Hong Kong 8/68 virus only mice [1] | lung cell counts after broncho-alveolar lavage [1] | signs of lung injury (electron micrographs) [1] | number of lung proteins whose formalin-mediated abundance changes were attenuated (lung protein alterations; 67 mg/m^3 aerosolized formalin for 1.5 minutes, lungs removed about 42 minutes post-exposure, includes fibrinogen-related proteins) | lung fibrinogen concentrations after acute formalin exposure (proteomic analyses) (lung protein alterations; acute lung injury model) | deleterious effects of ribavirin and interferon alpha (loss of appetite, nausea, vomiting, weight loss) (Hepatitis C virus) |
| --- | --- | --- | --- | --- | --- | --- | --- |
| Sar^9, Met (O2)^11-substance P | did not develop influenza symptoms | 33% | normal lung cell counts | did not observe any signs of lung injury | 71 proteins | preserve fibrinogen concentrations | – |
| CSCC[C@H](NC(=O)[C@H](CC(C)C)NC(=O)CNC(=O)[C@H](Cc1ccccc1)NC(=O)[C@H](Cc1ccccc1)NC(=O)[C@H](CCC(N)=O)NC(=O)[C@H](CCC(N)=O)NC(=O)[C@@H]1CCCN1C(=O)[C@H](CCCCN)NC(=O)[C@@H]1CCCN1C(=O)[C@@H](N)CCCN=C(N)N)C(N)=O [substance P] | – | – | – | – | – | – | eliminated |
